Values joined by “and” are separate entries in the source; they are usually repeats but may differ in a detail not shown here. Equal entries are not always repeated.
Assays:
[1] = tested on: Sprague–Dawley rats; assay: Dose-range finding study in rats, histopathology; type: in vivo, rat
Protocol: (§1) Blood samples were collected as described below. The animal sacrifice (exsanguination) was performed on day 8. During the necropsy, the selected organs were collected, weighed, and shipped to a third-party laboratory for histopathological examination (as described below).
The histological evaluation was performed by AnaPath Services GmbH (Liestal, Switzerland). The samples from the organs–liver, kidney, lung, heart, brain, femur, and ovary–were fixed in 4% neutral-buffered formaldehyde. The testes were fixed by using the Davidson solution. All tissues were trimmed, processed, and embedded in paraffin wax. Samples from the femur were processed and embedded in paraffin after decalcification. Blocks were cut at an approximate thickness of 2–4 μm and stained with hematoxylin and eosin (HE) according to AnaPath Services GmbH SOP’s. The slides were checked under the microscope for a quality check before examination under a light microscope by the study pathologist.

[2] = tested on: Sprague–Dawley rats; assay: Dose-range finding study in rats, necropsy and organ weight; type: in vivo, rat; conditions: for Organ weight, Brain / Organ weight, Heart / Organ weight, Kidney / Organ weight, Liver / Organ weight, Lung / Organ weight, Ovary (n=3 per group) / Organ weight, Spleen / Organ weight, Testis (n=3 per group): day 8
Protocol: (§2) TPT-004 was formulated in 0.5% (w/v) CMC-Na in water and administered by oral gavage (PO) twice daily (b.i.d.) with a 12 h interval to the treatment groups (3 male and 3 female Sprague–Dawley rats each) for 8 days (15 successive applications). Rats were dosed with 10, 45, and 200 mg/kg, i.e., daily doses of 20, 90, and 400 mg/kg. In addition, a control group was dosed at the same frequency as the vehicle (0.5% CMC-Na).
as §1

[3] = target: T1, recombinant human TH (Homo sapiens, UniProt P07101); assay: TH enzymatic activity assay (fluorescence, 96-well); type: biochemical
T1 construct: For purification of MBP-tagged full-length PAH and TH; made in house; host or cells: E. coli T7 Express (NEB) with pRARE2
Protocol: The TH enzymatic activity assay was performed using a 96-well plate format (Greiner). […] To initiate the reaction, L-Tyr (Fluka) was added (final concentration, 30 μM). The assay contained positive control samples (complete reaction mix, no inhibitor test compound), negative control samples (reaction mix without BH4), and an additional L-Tyr control (reaction mix without BH4, spiked with 25.5 μM or 27 μM L-Tyr) to measure the progression of the enzymatic reaction. All samples were measured in technical triplicates. The TH assay was performed at RT for 30 min. Depletion of the reaction substrate (L-Tyr) was continuously monitored at 240 s intervals by fluorescence measurements (ex.280 nm/em.306 nm) for 12 min using a Tecan Infinite 200 plate reader.
Negative control values (no enzyme or no substrate) were deducted from the positive control (full enzyme activity) and test compound values. Subsequently, the data were normalized (Pos. Ctr. = 100% of the enzyme activity). The results were further analyzed with GraphPad Prism 9 using the nonlinear regression model: log(inhibitor) vs. response−variableslope(fourparameters) which fits the following equation to the data: Y=Bottom+(Top−Bottom)/(1+10^((logIC50−X)×HillSlope))
The IC50 values were calculated from three independent experiments and are given as the mean ± SD.

[4] = target: T2, human recombinant TPH2 (Homo sapiens, UniProt Q8IWU9); assay: TPH2 enzymatic activity assay (fluorescence, 96-well); type: biochemical
T2 construct: Full-length human TPH1 and TPH2 (UniProt entries P17752 and Q8IWU9); MBP (N); made in house
T2 sequence (Q8IWU9 1-490): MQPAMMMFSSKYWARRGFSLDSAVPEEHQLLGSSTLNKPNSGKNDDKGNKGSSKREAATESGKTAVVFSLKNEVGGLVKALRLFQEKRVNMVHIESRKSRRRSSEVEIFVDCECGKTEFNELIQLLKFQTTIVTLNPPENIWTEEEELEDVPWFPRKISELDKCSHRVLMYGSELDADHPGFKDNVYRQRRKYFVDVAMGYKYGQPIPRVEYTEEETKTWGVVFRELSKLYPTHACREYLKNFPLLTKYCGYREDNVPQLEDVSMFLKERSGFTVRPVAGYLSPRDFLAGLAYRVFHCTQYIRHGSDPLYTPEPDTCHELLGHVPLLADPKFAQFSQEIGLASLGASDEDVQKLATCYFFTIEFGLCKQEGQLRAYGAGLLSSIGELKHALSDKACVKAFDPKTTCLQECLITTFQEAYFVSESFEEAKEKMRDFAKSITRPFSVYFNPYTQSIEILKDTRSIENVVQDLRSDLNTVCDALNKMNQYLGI

[5] = Toxicokinetic evaluation, plasma exposure in rats (LC-MS); type: in vivo, rat; conditions: for concentration at 30 min: both sexes, Sprague-Dawley, rat, plasma, po
Protocol: as §2
A blood sample of 100 μL was obtained from each rat by puncturing one of the lateral tail veins under short isoflurane anesthesia. Blood was collected in tubes containing lithium heparin and gently mixed. After centrifugation (10 min at 3000g, 4 °C), plasma was separated and stored at −20 °C until LC-MS analysis. In addition, on day 8, the rats were exsanguinated by cardiac puncture under isoflurane anesthesia. A volume of 100 μL of blood (K3-EDTA) was used for immediate cell blood count, while the rest of the blood was mixed with lithium heparin and centrifuged to generate plasma for clinical chemistry analysis.

[6] = calculated from determined IC50 values

T1 sequence (P07101 whole entry): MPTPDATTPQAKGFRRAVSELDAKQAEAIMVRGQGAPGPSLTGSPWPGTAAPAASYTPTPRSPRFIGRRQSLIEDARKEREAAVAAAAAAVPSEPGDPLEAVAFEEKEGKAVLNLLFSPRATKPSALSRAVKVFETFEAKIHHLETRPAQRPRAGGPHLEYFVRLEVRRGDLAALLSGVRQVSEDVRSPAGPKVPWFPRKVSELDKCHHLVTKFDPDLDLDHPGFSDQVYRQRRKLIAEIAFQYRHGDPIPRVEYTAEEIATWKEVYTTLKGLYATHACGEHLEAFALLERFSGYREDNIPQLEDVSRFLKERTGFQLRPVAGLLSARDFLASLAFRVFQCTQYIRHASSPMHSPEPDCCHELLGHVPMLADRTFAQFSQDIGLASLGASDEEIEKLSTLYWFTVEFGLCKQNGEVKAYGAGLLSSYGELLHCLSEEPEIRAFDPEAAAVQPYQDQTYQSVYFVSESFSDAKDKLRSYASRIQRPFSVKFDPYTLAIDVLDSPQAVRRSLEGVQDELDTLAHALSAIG

SMILES: CCn1c(=O)[nH]c(=O)c2c1nc(Cc1cn3cc(C)sc3n1)n2CC1COC1 [TPT-004]
- histopathological findings in heart, spleen, kidney, lung, brain, femur, testis, or ovary ([1]; 45 and 200 mg/kg BID): no test-related findings
- histopathological finding in the liver ([1]; only at doses ≥45 mg/kg BID): multifocal, minimal centrilobular hypertrophy
- Organ weight, Brain ([2]; 10 mg/kg PO BID): 6.8 g/kg body weight
- Organ weight, Heart ([2]; 10 mg/kg PO BID): 3.5 g/kg body weight
- Organ weight, Kidney ([2]; 10 mg/kg PO BID): 3.8 g/kg body weight
- Organ weight, Liver ([2]; 10 mg/kg PO BID): 39.4 g/kg body weight
- Organ weight, Lung ([2]; 10 mg/kg PO BID): 5.3 g/kg body weight
- Organ weight, Ovary (n=3 per group) ([2]; 10 mg/kg PO BID): 0.72 g/kg body weight
- Organ weight, Spleen ([2]; 10 mg/kg PO BID): 2.9 g/kg body weight
- Organ weight, Testis (n=3 per group) ([2]; 10 mg/kg PO BID): 8.7 g/kg body weight
- Organ weight, Brain ([2]; 45 mg/kg PO BID): 6.5 g/kg body weight
- Organ weight, Heart ([2]; 45 mg/kg PO BID): 3.6 g/kg body weight
- Organ weight, Kidney ([2]; 45 mg/kg PO BID): 3.6 g/kg body weight
- Organ weight, Liver ([2]; 45 mg/kg PO BID): 42.1 g/kg body weight
- Organ weight, Lung ([2]; 45 mg/kg PO BID): 5.2 g/kg body weight
- Organ weight, Ovary (n=3 per group) ([2]; 45 mg/kg PO BID): 0.55 g/kg body weight
- Organ weight, Spleen ([2]; 45 mg/kg PO BID): 2.8 g/kg body weight
- Organ weight, Testis (n=3 per group) ([2]; 45 mg/kg PO BID): 8.1 g/kg body weight
- Organ weight, Brain ([2]; 200 mg/kg PO BID): 6.7 g/kg body weight
- Organ weight, Heart ([2]; 200 mg/kg PO BID): 3.6 g/kg body weight
- Organ weight, Kidney ([2]; 200 mg/kg PO BID): 4.0 g/kg body weight
- Organ weight, Lung ([2]; 200 mg/kg PO BID): 5.2 g/kg body weight
- Organ weight, Ovary (n=3 per group) ([2]; 200 mg/kg PO BID): 0.65 g/kg body weight
- Organ weight, Spleen ([2]; 200 mg/kg PO BID): 2.8 g/kg body weight
- Organ weight, Testis (n=3 per group) ([2]; 200 mg/kg PO BID): 8.4 g/kg body weight
- Organ weight, Liver ([2]; 200 mg/kg PO BID, vehicle 41.2 ± 2.2, p = 0.0128): 45.2 g/kg body weight and 45.2 ± 1.2 g/kg body weight
- gross lesions at necropsy ([2]; 10, 45, or 200 mg/kg BID PO, 8 days): No test-item-related gross lesions
- weight of the organs, vehicle vs treatment groups, overall ([2]; 10, 45 or 200 mg/kg BID PO, 8 days, except liver at 200 mg/kg BID): No significant difference
- Mean TH activity [%] ([3]; 10 nM): 92.60%
- IC50 ([3]; 10 nM to 30 μM, 30 μM L-Tyr, 5 μM BH4): 1360 nM
- Mean TH activity [%] ([3]; 30 nM): 90.14%
- Mean TH activity [%] ([3]; 100 nM): 95.57%
- Mean TH activity [%] ([3]; 300 nM): 86.81%
- Mean TH activity [%] ([3]; 1 μM): 58.14%
- Mean TH activity [%] ([3]; 3 μM): 28.97%
- Mean TH activity [%] ([3]; 10 μM): 6.59%
- Mean TH activity [%] ([3]; 30 μM): -6.30%
- Selectivity ratio TH IC50 : TPH1 IC50 [3, 6]: 40.71
- IC50 ([3]; supplementary CSV): 1360 nM
- Mean TPH2 activity [%] ([4]; 3 nM): 100.37%
- IC50 ([4]; 3 nM to 10 μM, 30 μM L-Trp, 7.5 μM BH4): 21.7 nM
- Mean TPH2 activity [%] ([4]; 10 nM): 73.97%
- Mean TPH2 activity [%] ([4]; 30 nM): 38.03%
- Mean TPH2 activity [%] ([4]; 100 nM): 5.40%
- Mean TPH2 activity [%] ([4]; 300 nM): 1.60%
- Mean TPH2 activity [%] ([4]; 1 μM): 0.69%
- Mean TPH2 activity [%] ([4]; 3 μM): 1.07%
- Mean TPH2 activity [%] ([4]; 10 μM): 1.24%
- Selectivity ratio TPH2 IC50 : TPH1 IC50 [4, 6]: 0.65
- IC50 ([4]; supplementary CSV): 22 nM
- accumulation in plasma after 15 doses ([5]; 10, 45, 200 mg/kg BID, day 1 vs day 8): absence of an accumulation effect
- concentration at 30 min ([5]; 10 mg/kg, day 1, 30 min after the first application, 10 mg/kg PO): 902 ± 247 ng/mL
- concentration at 30 min ([5]; 10 mg/kg, day 8, 30 min after the 15th application, 10 mg/kg BID PO): 877 ± 210 ng/mL
- concentration at 30 min ([5]; 45 mg/kg, day 1, 30 min after the first application, 45 mg/kg PO): 4720 ± 2420 ng/mL
- concentration at 30 min ([5]; 45 mg/kg, day 8, 30 min after the 15th application, 45 mg/kg BID PO): 5040 ± 1790 ng/mL
- concentration at 30 min ([5]; 200 mg/kg, day 1, 30 min after the first application, 200 mg/kg PO): 18200 ± 6610 ng/mL
- concentration at 30 min ([5]; 200 mg/kg, day 8, 30 min after the 15th application, 200 mg/kg BID PO): 14400 ± 5600 ng/mL
- dose linearity correlation in plasma ([5]; day 1): 0.9987
- dose linearity correlation in plasma ([5]; day 8): 0.9826

From paper PMC12171880, “Selectivity and Safety Characterization of a Xanthine–Imidazothiazole Lead Structure: a Novel Tryptophan Hydroxylase Inhibitor of Peripheral Serotonin Synthesis” (ACS Pharmacology & Translational Science, 2025)
